As usually defined, the IC50 is the concentration at which inhibition is half-maximal.

Here are results for 16 compounds from patent publication US8183271B2, “Tetrazole derivatives and their use for the treatment of cardiovascular diseases” (Bayer Intellectual Property GmbH, priority 2005, dated 2012).

Molecules are shown by their SMILES.

In one assay the test system is saphenous artery rings. Put plainly: Vasorelaxant effect in vitro (phenylephrine-contracted artery rings). Format: cell-based, Rabbits. The settings on record: rabbit saphenous artery rings, contraction induced by phenylephrine. On the procedure: Rabbits are anesthetized and sacrificed by intravenous injection of thiopental sodium (about 50 mg/kg) and exsanguinated. The saphenous artery is removed and divided into rings 3 mm wide. The rings are mounted singly on in each case a pair of triangular hooks open at the end and made of 0.3 mm-thick special wire (Remanium®). Each ring is placed under an initial tension in 5 ml organ baths with Krebs-Henseleit solution which is at 37° C., is gassed with 95% O2/5% CO2 and has the following composition: NaCl 119 mM; KCl 4.8 mM; CaCl2×2H2O 1 mM; MgSO4×7H2O 1.4 mM; KH2PO4 1.2 mM; NaHCO3 25 mM; glucose 10 mM; bovine serum albumin 0.001%. The force of contraction is detected with Statham UC2 cells, amplified and digitized via A/D converters (DAS-1802 HC, Keithley Instruments, Munich) and recorded in parallel on chart recorders. Contractions are induced by addition of phenylephrine.
After several (generally 4) control cycles, the substance to be investigated is added in each further run in increasing dosage, and the height of the contraction achieved under the influence of the test substance is compared with the height of the contraction reached in the last preceding run. The concentration necessary to reduce the contraction reached in the preceding control by 50% is calculated from this (IC50). The standard application volume is 5 μl. The proportion of DMSO in the bath solution corresponds to 0.1%.

In assay [1] the target is T1, Heme-containing sGC (recombinant soluble guanylate cyclase) (Rattus norvegicus, UniProt P20595).
T1 construct: made in house
T1 sequence (P20595 1-619): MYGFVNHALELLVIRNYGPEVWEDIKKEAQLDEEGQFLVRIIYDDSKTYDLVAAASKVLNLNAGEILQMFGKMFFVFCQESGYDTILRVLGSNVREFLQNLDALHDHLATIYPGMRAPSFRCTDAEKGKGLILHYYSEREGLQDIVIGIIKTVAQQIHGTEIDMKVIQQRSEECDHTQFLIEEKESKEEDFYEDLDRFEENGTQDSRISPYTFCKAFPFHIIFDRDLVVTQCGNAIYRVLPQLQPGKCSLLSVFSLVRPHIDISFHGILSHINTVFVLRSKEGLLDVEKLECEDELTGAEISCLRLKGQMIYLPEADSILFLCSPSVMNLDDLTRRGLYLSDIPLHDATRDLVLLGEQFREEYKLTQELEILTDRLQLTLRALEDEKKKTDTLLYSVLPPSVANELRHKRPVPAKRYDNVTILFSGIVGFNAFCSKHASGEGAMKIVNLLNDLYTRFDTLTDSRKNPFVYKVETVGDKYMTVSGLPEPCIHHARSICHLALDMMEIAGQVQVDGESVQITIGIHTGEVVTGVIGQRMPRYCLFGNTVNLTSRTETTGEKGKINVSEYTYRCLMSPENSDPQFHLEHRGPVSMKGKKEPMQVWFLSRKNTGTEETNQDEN
T1 sequence (P19686 1-690 partner): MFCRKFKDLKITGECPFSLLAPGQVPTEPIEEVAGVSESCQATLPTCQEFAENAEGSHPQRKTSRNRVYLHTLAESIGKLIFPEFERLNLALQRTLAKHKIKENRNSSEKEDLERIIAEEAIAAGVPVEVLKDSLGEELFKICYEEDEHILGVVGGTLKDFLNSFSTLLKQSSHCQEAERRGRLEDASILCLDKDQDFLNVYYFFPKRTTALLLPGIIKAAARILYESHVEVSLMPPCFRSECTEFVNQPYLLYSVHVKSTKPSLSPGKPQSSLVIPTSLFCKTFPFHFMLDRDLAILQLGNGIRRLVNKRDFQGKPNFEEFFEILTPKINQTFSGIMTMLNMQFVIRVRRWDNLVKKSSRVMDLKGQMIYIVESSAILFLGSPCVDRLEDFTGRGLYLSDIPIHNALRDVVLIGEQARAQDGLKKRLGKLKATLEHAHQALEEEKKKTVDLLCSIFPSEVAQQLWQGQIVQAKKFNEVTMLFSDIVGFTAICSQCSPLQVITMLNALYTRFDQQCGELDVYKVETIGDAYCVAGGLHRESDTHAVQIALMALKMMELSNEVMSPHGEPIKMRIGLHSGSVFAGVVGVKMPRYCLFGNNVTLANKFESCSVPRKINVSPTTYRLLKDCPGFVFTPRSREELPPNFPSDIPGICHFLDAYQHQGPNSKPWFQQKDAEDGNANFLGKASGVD
Put plainly: Stimulation of recombinant soluble guanylate cyclase (sGC) in vitro, heme-containing enzyme. Format: biochemical. The settings on record: 0.0 μM Example 6. The text has this: Hoenicka, E. M. Becker, H. Apeler, T. Sirichoke, H. Schroeder, R. Gerzer and J.-P. Stasch, “Purified soluble guanylyl cyclase expressed in a baculovirus/Sf9 system: Stimulation by YC-1, nitric oxide, and carbon oxide”, J. Mol. Med. 77 (1999), 14-23. The heme-free guanylate cyclase is obtained by adding Tween 20 to the sample buffer (0.5% in the final concentration).
(§1) The activation of sGC by a test substance is reported as n-fold stimulation of the basal activity.

For assay [2], the target named is T2, Heme-free sGC (recombinant soluble guanylate cyclase) (Rattus norvegicus, UniProt P20595).
T2 construct: made in house
T2 sequence (P20595 1-619): T1 sequence (P20595 1-619)
T2 sequence (P19686 1-690 partner): T1 sequence (P19686 1-690 partner)
Put plainly: Stimulation of recombinant soluble guanylate cyclase (sGC) in vitro, heme-free enzyme. Type of assay: biochemical. The settings on record: 10 μM ODQ, 0.0 μM Example 6. On the procedure: Investigations on the stimulation of recombinant soluble guanylate cyclase (sGC) by the compounds according to the invention with and without sodium nitroprusside, and with and without the heme-dependent sGC inhibitor 1H-1,2,4-oxadiazole-(4,3a)-quinoxalin-1-one (ODQ) are carried out by the method described in detail in the following reference: M. Hoenicka, E. M. Becker, H. Apeler, T. Sirichoke, H. Schroeder, R. Gerzer and J.-P. Stasch, “Purified soluble guanylyl cyclase expressed in a baculovirus/Sf9 system: Stimulation by YC-1, nitric oxide, and […]”, J. Mol. Med. 77 (1999), 14-23. The heme-free guanylate cyclase is obtained by adding Tween 20 to the sample buffer (0.5% in the final concentration).
as §1

Take `CC(C)(C)c1ccc(COc2ccccc2/C=C/C(CCc2ccc(-c3nnn[nH]3)cc2)Cc2ccc(C(=O)O)cc2)c(Cl)c1` (single isomer, unassigned) [Example 3, 4-((3E)-4-{2-[(4-tert-Butyl-2-chlorobenzyl)oxy]phenyl}-2-{2-[4-(1H-tetrazol-5-yl)phenyl]ethyl}but-3-en-1-yl)benzoic acid]: the IC50 with saphenous artery rings (Oryctolagus cuniculus) came to 682 nM. This lies in the sub-micromolar range. Consider `CC(C)(C)c1ccc(COc2ccccc2/C=C/C(CCc2ccc(-c3nnn[nH]3)cc2)Cc2ccc(C(=O)O)cc2)cc1` (single isomer, unassigned) [Example 5, 4-((3E)-4-{2-[(4-tert-Butylbenzyl)oxy]phenyl}-2-{2-[4-(1H-tetrazol-5-yl)phenyl]ethyl}but-3-en-1-yl)benzoic acid], for which half-maximal inhibition in the assay on saphenous artery rings (IC50) required 2510 nM. This counts as single-digit micromolar. In the assay on saphenous artery rings (Oryctolagus cuniculus), `O=C(O)c1ccc(CCC(/C=C/c2ccccc2OCCCCCc2ccccc2)Cc2ccc(-c3nnn[nH]3)cc2)cc1` (single isomer, unassigned) [Example 14, 4-{(4E)-5-{2-[(5-Phenylpentyl)oxy]phenyl}-3-[4-(1H-tetrazol-5-yl)benzyl]pent-4-en-1-yl}benzoic acid] came in with a half-inhibitory concentration (IC50) of 1320 nM. `CC(C)(C)c1ccc(COc2ccccc2/C=C/C(CCc2ccc(C(=O)O)cc2)Cc2ccc(-c3nnn[nH]3)cc2)cc1` (single isomer, unassigned) [Example 23, 4-{(4E)-5-{2-[(4-tert-Butylbenzyl)oxy]phenyl}-3-[4-(1H-tetrazol-5-yl)benzyl]pent-4-en-1-yl}benzoic acid] yielded an IC50 with saphenous artery rings of 3890 nM. Same read-out and setting: as for `CC(C)(C)c1ccc(COc2ccccc2/C=C/C(CCc2ccc(C(=O)O)cc2)Cc2ccc(-c3nnn[nH]3)cc2)cc1` (single isomer, unassigned) [Example 24, 4-{(4E)-5-{2-[(4-tert-Butylbenzyl)oxy]phenyl}-3-[4-(1H-tetrazol-5-yl)benzyl]pent-4-en-1-yl}benzoic acid], the figure is 102 nM. `CC(C)(C)c1ccc(COc2ccccc2/C=C/C(CCCCc2nnn[nH]2)CCc2ccc(C(=O)O)cc2)cc1` (single isomer, unassigned) [Example 26, 4-[3-((E)-2-{2-[(4-tert-Butylbenzyl)oxy]phenyl}vinyl)-7-(1H-tetrazol-5-yl)heptyl]benzoic acid] displayed an IC50 with saphenous artery rings of 559 nM. Same read-out and setting: as for `CC(C)(C)c1ccc(COc2ccccc2/C=C/C(CCCCc2nnn[nH]2)CCc2ccc(C(=O)O)cc2)cc1` (single isomer, unassigned) [Example 27, 4-[3-((E)-2-f{2-[(4-tert-Butylbenzyl)oxy]phenyl}vinyl)-7-(1H-tetrazol-5-yl)heptyl]benzoic acid], the figure is 9.7 nM. Compound `CC(C)(C)c1ccc(COc2ccccc2/C=C/C(CCCCC(=O)O)CCc2ccc(-c3nnn[nH]3)cc2)cc1` (single isomer, unassigned) [Example 29, (7E)-8-{2-[(4-tert-Butylbenzyl)oxy]phenyl}-6-{2-[4-(1H-tetrazol-5-yl)phenyl]ethyl}oct-7-enoic acid] yielded an IC50 in the assay on saphenous artery rings (Oryctolagus cuniculus) of 1990 nM.

In the assay on saphenous artery rings (Oryctolagus cuniculus), `CC(C)(C)c1ccc(COc2ccccc2/C=C/C(CCCCC(=O)O)Cc2ccc(-c3nnn[nH]3)cc2)cc1` (single isomer, unassigned) [Example 36, (7E)-8-{2-[(4-tert-Butylbenzyl)oxy]phenyl}-6-[4-(1H-tetrazol-5-yl)benzyl]oct-7-enoic acid] displayed an IC50 of 760 nM. As for `CCN(CC)[N+]([O-])=NO` [DEA/NO, 2-(N,N-diethylamino)diazenolate 2-oxide, reference compound], in assay [1] (0.1 μM DEA/NO), the “Stimulation (n-fold) Heme-containing sGC by DEA/NO alone” value worked out at 64.1 n-fold.

As for `COc1ccc(CCc2ccc(F)cc2/C=C\C(CCc2ccc(C(=O)O)cc2)Cc2ccc(-c3nnn[nH]3)cc2)cc1` (centres unmarked) [Example 17, 4-{(4Z)-5-{5-Fluoro-2-[2-(4-methoxyphenyl)ethyl]phenyl}-3-[4-(1H-tetrazol-5-yl)benzyl]pent-4-en-1-yl}benzoic acid], the IC50 in the assay on saphenous artery rings (Oryctolagus cuniculus) stood at 5800 nM. Still for that read-out and setting: as for `COc1ccc(CCc2ccc(F)cc2/C=C/C(CCc2ccc(C(=O)O)cc2)Cc2ccc(-c3nnn[nH]3)cc2)cc1` (centres unmarked) [Example 18, 4-{(4E)-5-{5-Fluoro-2-[2-(4-methoxyphenyl)ethyl]phenyl}-3-[4-(1H-tetrazol-5-yl)benzyl]pent-4-en-1-yl}benzoic acid], the figure is 890 nM.

`O=C(O)c1ccc(CCC(/C=C/c2ccccc2OCc2ccc(-c3ccc(C(F)(F)F)cc3)cc2)Cc2ccc(-c3nnn[nH]3)cc2)cc1` (centres unmarked) [Example 21, 4-[(4E)-3-[4-(1H-Tetrazol-5-yl)benzyl]-5-(2-{[4′-(trifluoromethyl)biphenyl-4-yl]-methoxy}phenyl)pent-4-en-1-yl]benzoic acid]: the IC50 in the assay on saphenous artery rings (Oryctolagus cuniculus) amounted to 372 nM.

In the assay on saphenous artery rings (Oryctolagus cuniculus), `O=C(O)c1ccc(CCC(/C=C/c2ccccc2OCc2ccc(OC(F)(F)F)cc2)CCCCc2nnn[nH]2)cc1` (centres unmarked) [Example 38] returned an IC50 of 567 nM.

As to `O=C(O)c1ccc(CCC(/C=C/c2ccccc2OCc2cc(C(F)(F)F)cc(C(F)(F)F)c2)CCCCc2nnn[nH]2)cc1` (centres unmarked) [Example 39], the 50% inhibitory concentration (IC50) with saphenous artery rings (Oryctolagus cuniculus) came to 150 nM. Compared with the last compound, the IC50 is about 3.8-fold lower. As for `O=c1onc2cnc3ccccc3n12` [ODQ, 1H-1,2,4-oxadiazole-(4,3a)-quinoxalin-1-one, reference compound], in assay [2], the “Stimulation (n-fold) Heme-free sGC with ODQ alone” value stood at 1.2 n-fold. For the same compound, in assay [1] (10 μM ODQ), the “Stimulation (n-fold) Heme-containing sGC with ODQ alone” value was 2.4 n-fold.
